Data reported in US9682925B2, “Cyclopropaneamine compound” (TAKEDA PHARMACEUTICAL COMPANY LIMITED, priority 2011, dated 2017).
Where a name gives a salt, the structure may show the parent alone.

How the values were obtained:
Format in all cases: biochemical
human LSD1(171-852) = target: T1, human LSD1(171-852) (Homo sapiens, UniProt O60341); experiment: Measurement of LSD1 inhibitory activity (time-resolved fluorescence, biotin-histone H3 mono methylated K4 peptide); details: read-out: LSD1 IC50 value
T1 construct: to give hLSD1(171-852) purified product; made in house; host or cells: Escherichia coli C43(DE3) pLysS

MAO-A = target: T2, MAO-A (Homo sapiens, UniProt P21397); experiment: Measurement of MAO-A inhibitory activity (MAO-Glo Assay)
T2 construct: purchased Sigma-Aldrich Co. LLC
T2 sequence (P21397 1-527): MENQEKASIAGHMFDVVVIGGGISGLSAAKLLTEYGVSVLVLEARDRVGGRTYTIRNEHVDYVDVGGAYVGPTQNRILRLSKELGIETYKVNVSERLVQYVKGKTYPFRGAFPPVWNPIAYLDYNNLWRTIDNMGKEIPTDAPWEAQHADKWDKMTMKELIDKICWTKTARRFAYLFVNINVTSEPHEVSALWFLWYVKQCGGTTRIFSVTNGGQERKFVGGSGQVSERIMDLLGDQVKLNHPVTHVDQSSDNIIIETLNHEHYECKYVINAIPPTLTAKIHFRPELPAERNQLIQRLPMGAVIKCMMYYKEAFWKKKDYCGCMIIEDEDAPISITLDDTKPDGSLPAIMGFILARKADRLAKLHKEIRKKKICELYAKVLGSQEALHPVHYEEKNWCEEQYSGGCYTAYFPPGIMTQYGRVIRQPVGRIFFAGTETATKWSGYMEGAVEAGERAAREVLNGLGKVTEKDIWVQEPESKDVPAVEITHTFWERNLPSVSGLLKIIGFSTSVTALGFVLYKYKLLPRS
Procedure, shortened: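 MAO-A (400 ng) was pre-incubated with compound 10 min at room temperature in 100 mM HEPES pH 7.5, 5% glycerol, then MAO substrate (160 μM stock) added for 60 min. Luciferin detection reagent, 20 min, luminescence; % inhibition against no-compound control minus no-enzyme blank.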

MAO-B = target: T3, MAO-B (Homo sapiens, UniProt P27338); experiment: Measurement of MAO-B inhibitory activity (MAO-Glo Assay)
T3 construct: purchased Sigma-Aldrich Co. LLC
T3 sequence (P27338 1-520): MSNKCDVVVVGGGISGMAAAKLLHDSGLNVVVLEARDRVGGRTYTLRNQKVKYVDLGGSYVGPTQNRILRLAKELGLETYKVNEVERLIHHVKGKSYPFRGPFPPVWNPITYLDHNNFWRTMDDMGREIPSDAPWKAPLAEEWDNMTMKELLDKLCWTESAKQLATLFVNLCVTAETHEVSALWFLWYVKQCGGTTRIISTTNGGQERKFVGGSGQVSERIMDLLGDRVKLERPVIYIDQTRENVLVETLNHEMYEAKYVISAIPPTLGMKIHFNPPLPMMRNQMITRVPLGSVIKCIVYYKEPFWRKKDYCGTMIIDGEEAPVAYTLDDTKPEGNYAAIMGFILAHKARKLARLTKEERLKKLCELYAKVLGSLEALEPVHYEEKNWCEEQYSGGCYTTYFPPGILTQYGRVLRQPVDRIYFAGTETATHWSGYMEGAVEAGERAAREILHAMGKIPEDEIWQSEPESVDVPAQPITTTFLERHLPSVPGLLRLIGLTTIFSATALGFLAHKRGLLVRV
Procedure, shortened: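 Percent inhibition was calculated from luciferin-based luminescence, corrected with a blank lacking enzyme and a control lacking compound. The reaction ran 60 min at room temperature after adding MAO substrate (16 µM as added). This followed a 10 min compound–enzyme preincubation in HEPES pH 7.5 buffer.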

## O=C(Nc1ccc([C@@H]2C[C@H]2NCC2CC2)cc1)c1c[nH]c2ccccc12 (relative stereo) [Example 127, N-(4-{trans-2-[(cyclopropyl-methyl)amino]cyclo-propyl}phenyl)-1H-indole-3-carboxamide]
Human LSD1(171-852)
  IC50: 0.1 µM
MAO-A
  IC50: > 10 µM
MAO-B
  IC50: > 10 µM

## O=C(Nc1ccc([C@@H]2C[C@H]2NCC2CC2)cc1)c1n[nH]c2ccccc12 (relative stereo) [Example 128, N-(4-{trans-2-[(cyclopropyl-methyl)amino]cyclo-propyl}phenyl)-1H-indazole-3-carboxamide]
Human LSD1(171-852)
  IC50: < 0.1 µM
MAO-A
  IC50: 5.3 µM
MAO-B
  IC50: > 10 µM

## O=C(Nc1ccc([C@@H]2C[C@H]2NCC2CC2)cc1)c1cc2ccccc2o1 (relative stereo) [Example 129, N-(4-{trans-2-[(cyclopropyl-methyl)amino]cyclo-propyl}phenyl)-1-benzofuran-2-carboxamide]
Human LSD1(171-852)
  IC50: < 0.1 µM
MAO-A
  IC50: 8.2 µM
MAO-B
  IC50: > 10 µM

## CN1CCN(c2ccc(C(=O)Nc3ccc([C@@H]4C[C@H]4NCC4CC4)cc3)cc2)CC1 (relative stereo) [Example 130, N-(4-{trans-2-[(cyclopropyl-methyl)amino]cyclo-propyl}phenyl)-4-(4-methylpiperazin-1-yl)benzamide]
Human LSD1(171-852)
  IC50: < 0.1 µM
MAO-A
  IC50: > 10 µM
MAO-B
  IC50: > 10 µM

## CN1CCN(c2cccc(C(=O)Nc3ccc([C@@H]4C[C@H]4NCC4CC4)cc3)c2)CC1 (relative stereo) [Example 131, N-(4-{trans-2-[(cyclopropyl-methyl)amino]-cyclopropyl}-phenyl)-3-(4-methylpiperazin-l-yl)benzamide]
Human LSD1(171-852)
  IC50: < 0.1 µM
MAO-A
  IC50: > 10 µM
MAO-B
  IC50: > 10 µM

## O=C(Nc1ccc([C@@H]2C[C@H]2NCC2CC2)cc1)c1ccc(-c2cccnc2)cc1 (relative stereo) [Example 132, N-(4-{trans-2-[(cyclopropyl-methyl)amino]-cyclopropyl}-phenyl)-4-(pyridin-3-yl)benzamide]
Human LSD1(171-852)
  IC50: < 0.1 µM
MAO-A
  IC50: 8.3 µM
MAO-B
  IC50: > 10 µM

## O=C(Nc1ccc([C@@H]2C[C@H]2NCC2CC2)cc1)c1cc(-c2ccccc2)no1 (relative stereo) [Example 133, N-(4-{trans-2-[(cyclopropyl-methyl)amino]-cyclopropyl}-phenyl)-3-phenyl-1,2-oxazole-5-carboxamide]
Human LSD1(171-852)
  IC50: < 0.1 µM
MAO-A
  IC50: > 10 µM
MAO-B
  IC50: > 10 µM

## CC(=O)N1CCCc2ccc(C(=O)Nc3ccc([C@@H]4C[C@H]4NCC4CC4)cc3)cc2C1 (relative stereo) [Example 134, 2-acetyl-N-(4-{trans-2-[(cyclopropyl-methyl)amino]-cyclopropyl}-phenyl)-2,3,4,5-tetrahydro-1H-2-benzazepine-8-carboxamide]
Human LSD1(171-852)
  IC50: < 0.1 µM
MAO-A
  IC50: > 10 µM
MAO-B
  IC50: > 10 µM

## CS(=O)(=O)Nc1ccc(C(=O)Nc2ccc([C@@H]3C[C@H]3NCC3CC3)cc2)cc1 (relative stereo) [Example 135, N-(4-{trans-2-[(cyclopropylmethyl)amino]cyclopropyl}phenyl)-4-[(methylsulfonyl)amino]benzamide hydrochloride]
Human LSD1(171-852)
  IC50: 0.1 µM
MAO-A
  IC50: > 10 µM
MAO-B
  IC50: > 10 µM

## CS(=O)(=O)Nc1cccc(C(=O)Nc2ccc([C@@H]3C[C@H]3NCC3CC3)cc2)c1 (relative stereo) [Example 136, N-(4-{trans-2-[(cyclopropylmethyl)amino]cyclopropyl}phenyl)-3-[(methylsulfonyl)amino]benzamide hydrochloride]
Human LSD1(171-852)
  IC50: < 0.1 µM
MAO-A
  IC50: > 10 µM
MAO-B
  IC50: > 10 µM

## O=C(Nc1ccc([C@@H]2C[C@H]2NCC2CC2)cc1)c1cc(-c2ccccc2)cs1 (relative stereo) [Example 137, N-(4-{trans-2-[(cyclopropylmethyl)amino]cyclopropyl}phenyl)-4-phenylthiophene-2-carboxamide hydrochloride]
Human LSD1(171-852)
  IC50: < 0.1 µM
MAO-A
  IC50: 4.2 µM
MAO-B
  IC50: > 10 µM

## O=C(Nc1ccc([C@@H]2C[C@H]2NCC2CC2)cc1)c1ccc(-c2ncccn2)cc1 (relative stereo) [Example 138, N-(4-{trans-2-[(cyclopropylmethyl)amino]cyclopropyl}phenyl)-4-(pyrimidin-2-yl)benzamide hydrochloride]
Human LSD1(171-852)
  IC50: < 0.1 µM
MAO-A
  IC50: > 10 µM
MAO-B
  IC50: > 10 µM

## O=C(Nc1ccc([C@@H]2C[C@H]2NCC2CC2)cc1)c1cccc(-c2ncccn2)c1 (relative stereo) [Example 139, N-(4-{trans-2-[(cyclopropylmethyl)amino]cyclopropyl}phenyl)-3-(pyrimidin-2-yl)benzamide hydrochloride]
Human LSD1(171-852)
  IC50: < 0.1 µM
MAO-A
  IC50: 8.2 µM
MAO-B
  IC50: > 10 µM

## O=C(Nc1ccc([C@@H]2C[C@H]2NCC2CC2)cc1)c1ccccc1 (relative stereo) [Example 140, N-(4-{trans-2-[(cyclopropylmethyl)amino]cyclopropyl}phenyl)benzamide hydrochloride]
Human LSD1(171-852)
  IC50: < 0.1 µM
MAO-A
  IC50: > 10 µM
MAO-B
  IC50: > 10 µM

## O=C(Nc1ccc([C@@H]2C[C@H]2NCC2CC2)cc1)C1CCCCC1 (relative stereo) [Example 141, N-(4-{trans-2-[(cyclopropylmethyl)amino]cyclopropyl}phenyl)-cyclohexanecarboxamide hydrochloride]
Human LSD1(171-852)
  IC50: < 0.1 µM
MAO-A
  IC50: > 10 µM
MAO-B
  IC50: > 10 µM

## CN(C)c1ccccc1CN[C@@H]1C[C@H]1c1ccc(NC(=O)c2cccc(C(F)(F)F)c2)cc1 (relative stereo) [Example 142, N-{4-[trans-2-{[2-(dimethylamino)benzyl]amino}cyclopropyl]phenyl}-3-(trifluoromethyl)benzamide hydrochloride]
Human LSD1(171-852)
  IC50: 0.1 µM
MAO-A
  IC50: > 10 µM
MAO-B
  IC50: > 10 µM

## O=C1c2ccccc2C(=O)N1c1ccc([C@@H]2C[C@H]2NCC2CC2)cc1 (relative stereo) [Example 143, 2-(4-{trans-2-[(cyclopropylmethyl)amino]cyclopropyl}phenyl)-1H -isoindole-1,3(2H)-dione hydrochloride]
Human LSD1(171-852)
  IC50: < 0.1 µM
MAO-A
  IC50: 4.5 µM
MAO-B
  IC50: > 10 µM

## O=C1c2ccccc2CN1c1ccc([C@@H]2C[C@H]2NCC2CC2)cc1 (relative stereo) [Example 144, 2-(4-{trans-2-[(cyclopropylmethyl)amino]cyclopropyl}phenyl)isoindolin-1-one hydrochloride]
Human LSD1(171-852)
  IC50: 0.2 µM
MAO-A
  IC50: > 10 µM
MAO-B
  IC50: > 10 µM

## NS(=O)(=O)c1cccc(C(=O)Nc2ccc([C@@H]3C[C@H]3NCC3CC3)cc2)c1 (relative stereo) [Example 145, N-(4-{trans-2-[(cyclopropylmethyl)amino]cyclopropyl}phenyl)-3-sulfamoylbenzamide hydrochloride]
Human LSD1(171-852)
  IC50: < 0.1 µM
MAO-A
  IC50: > 10 µM
MAO-B
  IC50: > 10 µM

## O=C(Nc1ccc([C@@H]2C[C@H]2NCC2CC2)cc1)c1cccc(Cn2ccnc2)c1 (relative stereo) [Example 146, N-(4-{trans-2-[(cyclopropylmethyl)amino]cyclopropyl}phenyl)-3-(1H-imidazol-1-ylmethyl)benzamide hydrochloride]
Human LSD1(171-852)
  IC50: < 0.1 µM
MAO-A
  IC50: 6.7 µM
MAO-B
  IC50: > 10 µM

## O=C(Nc1ccc([C@@H]2C[C@H]2NCC2CC2)cc1)c1cccc(Cn2cncn2)c1 (relative stereo) [Example 147, N-(4-{trans-2-[(cyclopropylmethyl)amino]cyclopropyl}phenyl)-3-(1H-1,2,4-triazol-1-ylmethyl)benzamide hydrochloride]
Human LSD1(171-852)
  IC50: < 0.1 µM
MAO-A
  IC50: > 10 µM
MAO-B
  IC50: > 10 µM

## O=C(Nc1ccc([C@@H]2C[C@H]2NCC2CC2)cc1)c1cccc(-n2ccnc2)c1 (relative stereo) [Example 148, N-(4-{trans-2-[(cyclopropylmethyl)amino]cyclopropyl}phenyl)-3-(1H-imidazol-1-yl)benzamide hydrochloride]
Human LSD1(171-852)
  IC50: < 0.1 µM
MAO-A
  IC50: 8.3 µM
MAO-B
  IC50: > 10 µM
